Results reported in patent US20230143604A1, “QW DOSING OF GIP RECEPTOR AGONIST PEPTIDE COMPOUNDS AND USES THEREOF” (TAKEDA PHARMACEUTICAL COMPANY LIMITED, priority 2020, published 2023).
Starred links: 1 amine or outer side, 2 acyl side, 3 side chain; linkers in the order of their positions; H or OH if unused. Non-standard residues stand in square brackets, D forms with d. Residues, ends and D or L forms follow the SMILES beside them. Groups on a side chain read outwards from the residue. *: point of attachment. C20 diacid = O=C(O)CCCCCCCCCCCCCCCCCCC(=O)*; C18 diacid = O=C(O)CCCCCCCCCCCCCCCCC(=O)*; γGlu = O=C(O)[C@H](CCC(=O)[*:2])N[*:1]; NMeY = CN[C@@H](Cc1ccc(O)cc1)C(=O)O; AEEA = NCCOCCOCC(=O)O; Aib = CC(C)(N)C(=O)O

Assay: physchem
Outline: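 3 mg of peptide treated with 100 μL portions of 200 mM phosphate buffer pH 7.4, sonicating/vortexing up to 1 min, with further buffer added until fully dissolved. Solubility then quantified by HPLC.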

| Compound | solubility (pH 7.4) | solubility (pH 7.4, aqueous buffer) | solubility (pH 7.4, solubility in phosphate buffer at pH 7.4, 200 mM phosphate buffer pH 7.4) |
| --- | --- | --- | --- |
| CC[C@H](C)[C@H](NC(=O)[C@H](Cc1ccccc1)NC(=O)[C@@H](NC(=O)CNC(=O)[C@H](CCC(=O)O)NC(=O)C(C)(C)NC(=O)[C@H](Cc1ccc(O)cc1)NC)[C@@H](C)O)C(=O)N[C@@H](CO)C(=O)N[C@@H](CC(=O)O)C(=O)N[C@@H](Cc1ccc(O)cc1)C(=O)N[C@@H](CO)C(=O)N[C@H](C(=O)NC(C)(C)C(=O)N[C@@H](CC(C)C)C(=O)N[C@@H](CC(=O)O)C(=O)N[C@@H](CCCNC(=N)N)C(=O)NC(C)(C)C(=O)N[C@@H](C)C(=O)N[C@@H](CCC(N)=O)C(=O)NC(C)(C)C(=O)N[C@@H](CCCCNC(=O)COCCOCCNC(=O)COCCOCCNC(=O)CC[C@H](NC(=O)CC[C@H](NC(=O)CCCCCCCCCCCCCCCCC(=O)O)C(=O)O)C(=O)O)C(=O)N[C@@H](Cc1ccccc1)C(=O)N[C@H](C(=O)N[C@@H](CC(N)=O)C(=O)N[C@@H](Cc1c[nH]c2ccccc12)C(=O)N[C@@H](CC(C)C)C(=O)N[C@@H](CC(C)C)C(=O)N[C@@H](C)C(=O)N[C@@H](CCC(N)=O)C(=O)N[C@@H](CCCCN)C(=O)NCC(=O)O)C(C)C)[C@@H](C)CC [Compound 66] (H-[NMeY][Aib]EGTFISDYSI[Aib]LDR[Aib]AQ[Aib]K([AEEA-AEEA-γGlu-γGlu-C18 diacid])FVNWLLAQKG-OH) | ≥ 15 mg/mL | ≥ 30 mg/mL | – |
| CC[C@H](C)[C@H](NC(=O)[C@H](CO)NC(=O)[C@H](Cc1ccc(O)cc1)NC(=O)[C@H](CC(=O)O)NC(=O)[C@H](CO)NC(=O)[C@@H](NC(=O)[C@H](Cc1ccccc1)NC(=O)[C@@H](NC(=O)CNC(=O)[C@H](CCC(=O)O)NC(=O)C(C)(C)NC(=O)[C@H](Cc1ccc(O)cc1)NC)[C@@H](C)O)[C@@H](C)CC)C(=O)N[C@@H](C)C(=O)N[C@@H](CC(C)C)C(=O)N[C@@H](CC(=O)O)C(=O)N[C@@H](CCCNC(=N)N)C(=O)NC(C)(C)C(=O)N[C@@H](CCCCNC(=O)COCCOCCNC(=O)COCCOCCNC(=O)CC[C@H](NC(=O)CC[C@H](NC(=O)CCCCCCCCCCCCCCCCCCC(=O)O)C(=O)O)C(=O)O)C(=O)N[C@@H](CCC(N)=O)C(=O)NC(C)(C)C(=O)N[C@@H](CC(N)=O)C(=O)N[C@@H](Cc1ccccc1)C(=O)N[C@H](C(=O)N[C@@H](CC(N)=O)C(=O)N[C@@H](Cc1c[nH]c2ccccc12)C(=O)N[C@@H](CC(C)C)C(=O)N[C@@H](CC(C)C)C(=O)N[C@@H](C)C(=O)N[C@@H](CCC(N)=O)C(=O)N[C@@H](CO)C(=O)N1CCC[C@H]1C(=O)N[C@@H](CO)C(=O)N[C@@H](CO)C(=O)NCC(=O)N[C@@H](C)C(=O)N1CCC[C@H]1C(=O)N1CCC[C@H]1C(=O)N1CCC[C@H]1C(=O)N[C@@H](CO)C(N)=O)C(C)C [Compound 68] (H-[NMeY][Aib]EGTFISDYSIALDR[Aib]K([AEEA-AEEA-γGlu-γGlu-C20 diacid])Q[Aib]NFVNWLLAQSPSSGAPPPS-NH2) | – | – | ≥ 15 mg/mL |
| CC[C@H](C)[C@H](NC(=O)[C@H](Cc1ccccc1)NC(=O)[C@@H](NC(=O)CNC(=O)[C@H](CCC(=O)O)NC(=O)C(C)(C)NC(=O)[C@H](Cc1ccc(O)cc1)NC)[C@@H](C)O)C(=O)N[C@@H](CO)C(=O)N[C@@H](CC(=O)O)C(=O)N[C@@H](Cc1ccc(O)cc1)C(=O)N[C@@H](CO)C(=O)N[C@H](C(=O)NC(C)(C)C(=O)N[C@@H](CC(C)C)C(=O)N[C@@H](CC(=O)O)C(=O)N[C@@H](CCCNC(=N)N)C(=O)NC(C)(C)C(=O)N[C@@H](CCCCNC(=O)COCCOCCNC(=O)COCCOCCNC(=O)CC[C@H](NC(=O)CC[C@H](NC(=O)CCCCCCCCCCCCCCCCC(=O)O)C(=O)O)C(=O)O)C(=O)N[C@@H](CCC(N)=O)C(=O)NC(C)(C)C(=O)N[C@@H](CC(=O)O)C(=O)N[C@@H](Cc1ccccc1)C(=O)N[C@H](C(=O)N[C@@H](CC(N)=O)C(=O)N[C@@H](Cc1c[nH]c2ccccc12)C(=O)N[C@@H](CC(C)C)C(=O)N[C@@H](CC(C)C)C(=O)N[C@@H](C)C(=O)N[C@@H](CCC(N)=O)C(=O)N[C@@H](CCCNC(=N)N)C(=O)NCC(=O)O)C(C)C)[C@@H](C)CC [Compound 73] (H-[NMeY][Aib]EGTFISDYSI[Aib]LDR[Aib]K([AEEA-AEEA-γGlu-γGlu-C18 diacid])Q[Aib]DFVNWLLAQRG-OH) | ≥ 15 mg/mL | ≥ 30 mg/mL | – |
| CC[C@H](C)[C@H](NC(=O)[C@H](Cc1ccccc1)NC(=O)[C@@H](NC(=O)CNC(=O)[C@H](CCC(=O)O)NC(=O)C(C)(C)NC(=O)[C@H](Cc1ccc(O)cc1)NC)[C@@H](C)O)C(=O)N[C@@H](CO)C(=O)N[C@@H](CC(=O)O)C(=O)N[C@@H](Cc1ccc(O)cc1)C(=O)N[C@@H](CO)C(=O)N[C@H](C(=O)NC(C)(C)C(=O)N[C@@H](CC(C)C)C(=O)N[C@@H](CC(=O)O)C(=O)N[C@@H](CCCNC(=N)N)C(=O)NC(C)(C)C(=O)N[C@@H](CCCCNC(=O)COCCOCCNC(=O)COCCOCCNC(=O)CC[C@H](NC(=O)CC[C@H](NC(=O)CCCCCCCCCCCCCCCCC(=O)O)C(=O)O)C(=O)O)C(=O)N[C@@H](CCC(N)=O)C(=O)NC(C)(C)C(=O)N[C@@H](CC(N)=O)C(=O)N[C@@H](Cc1ccccc1)C(=O)N[C@H](C(=O)N[C@@H](CC(N)=O)C(=O)N[C@@H](Cc1c[nH]c2ccccc12)C(=O)N[C@@H](CC(C)C)C(=O)N[C@@H](CC(C)C)C(=O)N[C@@H](C)C(=O)N[C@@H](CCC(N)=O)C(=O)N[C@@H](CCCNC(=N)N)C(=O)NCC(=O)O)C(C)C)[C@@H](C)CC [Compound 74] (H-[NMeY][Aib]EGTFISDYSI[Aib]LDR[Aib]K([AEEA-AEEA-γGlu-γGlu-C18 diacid])Q[Aib]NFVNWLLAQRG-OH) | ≥ 15 mg/mL | ≥ 30 mg/mL | – |
| CC[C@H](C)[C@H](NC(=O)[C@H](CO)NC(=O)[C@H](Cc1ccc(O)cc1)NC(=O)[C@H](CC(=O)O)NC(=O)[C@H](CO)NC(=O)[C@@H](NC(=O)[C@H](Cc1ccccc1)NC(=O)[C@@H](NC(=O)CNC(=O)[C@H](CCC(=O)O)NC(=O)C(C)(C)NC(=O)[C@H](Cc1ccc(O)cc1)NC)[C@@H](C)O)[C@@H](C)CC)C(=O)N[C@@H](C)C(=O)N[C@@H](CC(C)C)C(=O)N[C@@H](CC(=O)O)C(=O)N[C@@H](CO)C(=O)N[C@@H](CCCCNC(=O)CNC(=O)CNC(=O)CNC(=O)CNC(=O)CNC(=O)CCCCCCCCCCCCCCCCC(=O)O)C(=O)N[C@@H](C)C(=O)N[C@@H](CCC(N)=O)C(=O)NC(C)(C)C(=O)N[C@@H](CC(=O)O)C(=O)N[C@@H](Cc1ccccc1)C(=O)N[C@H](C(=O)N[C@@H](CC(N)=O)C(=O)N[C@@H](Cc1c[nH]c2ccccc12)C(=O)N[C@@H](CC(C)C)C(=O)N[C@@H](CC(C)C)C(=O)N[C@@H](C)C(=O)N[C@@H](CCC(N)=O)C(=O)N[C@@H](CCCCN)C(=O)NCC(=O)O)C(C)C [Compound 78] | ≥ 15 mg/mL | ≥ 30 mg/mL | – |
| CC[C@H](C)[C@H](NC(=O)[C@H](CO)NC(=O)[C@H](Cc1ccc(O)cc1)NC(=O)[C@H](CC(=O)O)NC(=O)[C@H](CO)NC(=O)[C@@H](NC(=O)[C@H](Cc1ccccc1)NC(=O)[C@@H](NC(=O)CNC(=O)[C@H](CCC(=O)O)NC(=O)C(C)(C)NC(=O)[C@H](Cc1ccc(O)cc1)NC)[C@@H](C)O)[C@@H](C)CC)C(=O)N[C@@H](C)C(=O)N[C@@H](CCCCNC(=O)CNC(=O)CNC(=O)CNC(=O)CNC(=O)CC[C@H](NC(=O)CCCCCCCCCCCCCCCCC(=O)O)C(=O)O)C(=O)N[C@@H](CC(=O)O)C(=O)N[C@@H](CO)C(=O)NC(C)(C)C(=O)N[C@@H](C)C(=O)N[C@@H](CCC(N)=O)C(=O)NC(C)(C)C(=O)N[C@@H](CC(=O)O)C(=O)N[C@@H](Cc1ccccc1)C(=O)N[C@H](C(=O)N[C@@H](CC(N)=O)C(=O)N[C@@H](Cc1c[nH]c2ccccc12)C(=O)N[C@@H](CC(C)C)C(=O)N[C@@H](CC(C)C)C(=O)N[C@@H](C)C(=O)N[C@@H](CCC(N)=O)C(=O)N[C@@H](CCCCN)C(=O)NCC(=O)O)C(C)C [Compound 79] (H-[NMeY][Aib]EGTFISDYSIAK([Gly-Gly-Gly-Gly-γGlu-C18 diacid])DS[Aib]AQ[Aib]DFVNWLLAQKG-OH) | ≥ 15 mg/mL | ≥ 30 mg/mL | – |
| CC[C@H](C)[C@H](NC(=O)[C@H](CO)NC(=O)[C@H](Cc1ccc(O)cc1)NC(=O)[C@H](CC(=O)O)NC(=O)[C@H](CO)NC(=O)[C@@H](NC(=O)[C@H](Cc1ccccc1)NC(=O)[C@@H](NC(=O)CNC(=O)[C@H](CCC(=O)O)NC(=O)C(C)(C)NC(=O)[C@H](Cc1ccc(O)cc1)NC)[C@@H](C)O)[C@@H](C)CC)C(=O)N[C@@H](C)C(=O)N[C@@H](CCCCNC(=O)CNC(=O)CNC(=O)CNC(=O)CNC(=O)CC[C@H](NC(=O)CCCCCCCCCCCCCCCCC(=O)O)C(=O)O)C(=O)N[C@@H](CC(=O)O)C(=O)N[C@@H](CCCNC(=N)N)C(=O)NC(C)(C)C(=O)N[C@@H](C)C(=O)N[C@@H](CCC(N)=O)C(=O)NC(C)(C)C(=O)N[C@@H](CC(=O)O)C(=O)N[C@@H](Cc1ccccc1)C(=O)N[C@H](C(=O)N[C@@H](CC(N)=O)C(=O)N[C@@H](Cc1c[nH]c2ccccc12)C(=O)N[C@@H](CC(C)C)C(=O)N[C@@H](CC(C)C)C(=O)N[C@@H](C)C(=O)N[C@@H](CCC(N)=O)C(=O)N[C@@H](CCCCN)C(=O)NCC(=O)O)C(C)C [Compound 80] (H-[NMeY][Aib]EGTFISDYSIAK([Gly-Gly-Gly-Gly-γGlu-C18 diacid])DR[Aib]AQ[Aib]DFVNWLLAQKG-OH) | ≥ 15 mg/mL | ≥ 30 mg/mL | – |
| CC[C@H](C)[C@H](NC(=O)[C@H](Cc1ccccc1)NC(=O)[C@@H](NC(=O)CNC(=O)[C@H](CCC(=O)O)NC(=O)C(C)(C)NC(=O)[C@H](Cc1ccc(O)cc1)NC)[C@@H](C)O)C(=O)N[C@@H](CO)C(=O)N[C@@H](CC(=O)O)C(=O)N[C@@H](Cc1ccc(O)cc1)C(=O)N[C@@H](CO)C(=O)N[C@H](C(=O)NC(C)(C)C(=O)N[C@@H](CC(C)C)C(=O)N[C@@H](CC(=O)O)C(=O)N[C@@H](CCCNC(=N)N)C(=O)NC(C)(C)C(=O)N[C@@H](C)C(=O)N[C@@H](CCC(N)=O)C(=O)NC(C)(C)C(=O)N[C@@H](CCCCNC(=O)COCCOCCNC(=O)COCCOCCNC(=O)CC[C@H](NC(=O)CC[C@H](NC(=O)CCCCCCCCCCCCCCCCC(=O)O)C(=O)O)C(=O)O)C(=O)N[C@@H](Cc1ccccc1)C(=O)N[C@H](C(=O)N[C@@H](CC(N)=O)C(=O)N[C@@H](Cc1c[nH]c2ccccc12)C(=O)N[C@@H](CC(C)C)C(=O)N[C@@H](CC(C)C)C(=O)N[C@@H](C)C(=O)N[C@@H](CCC(N)=O)C(=O)N[C@@H](CO)C(=O)N1CCC[C@H]1C(=O)NCC(=O)O)C(C)C)[C@@H](C)CC [Compound 85] (H-[NMeY][Aib]EGTFISDYSI[Aib]LDR[Aib]AQ[Aib]K([AEEA-AEEA-γGlu-γGlu-C18 diacid])FVNWLLAQSPG-OH) | ≥ 15 mg/mL | ≥ 30 mg/mL | – |
